Experimental data reported in US20100292185A1, “BETA-LACTAMASE INHIBITORS” (priority 2009, published 2010).
Where a name gives a salt, the structure may show the parent alone.

Key:
[1] = tested on: P. aeruginosa expressing the Class B metallo β-lactamase VIM-2; assay: In vitro antibacterial assay of β-lactamase inhibition (broth microdilution MIC), P. aeruginosa VIM-2; type: cell-based; settings: for MIC of example compound, P. aeruginosa VIM-2: in presence of Ceftazidime 16 μg/mL (Examples 1-56)
Description: (§1) To determine the ability of test compounds to potentiate the inhibition of the growth of bacterial strains producing beta-lactamase enzymes, classic cell based screening assays were employed. Five bacteria strains producing beta-lactamase enzymes were used: K. pneumoniae expressing the Class A Extended Spectrum Beta-Lactamase (ESBL) CTX-M-15, E. coli expressing the Class A ESBL SHV-5, E. cloacae expressing the Class C P99+, K. pneumoniae expressing the Class A carbapenemase KPC-2, and P. aeruginosa expressing the Class B metallo β-lactamase VIM-2. In order to evaluate the ability of test compounds to inhibit beta-lactamase activity, Applicants used a modification of the broth microdilution assay. The assay was conducted in Cation Adjusted Mueller Hinton Broth (CAMHB, BD # 212322, BD Diagnostic Systems, Sparks, Md.). Bacteria strains were grown for 3-5 hours in CAMBH broth. All five strains were grown in presence of 50 μg/mL ampicillin to ensure resistance is maintained. In the meantime, test compounds were diluted in DMSO to a 0.1 mg/mL stock. The compounds were added to a microtiter plate and were diluted in 2-fold serial dilutions in CAMHB in a final concentration range of 8 μg/mL to 0.015 μg/ml. […] Each of these compound plates are made in quadruplicate, one for each bacteria strain. In addition to the titration of test compounds the MICs of a panel of cephalosporins is also tested to ensure the strains are behaving consistently from test to test. Once the test compound and cephalosporin are added the plates can be inoculated. Inocula are conducted according to CLSI broth microdilution method. After inoculation the plates are incubated for 16-20 hours at 37° C. then the Minimal Inhibitory Concentration (MIC) of the test compound is determined visually.
(§2) Using the methodology described above, examples of the current invention were evaluated for their ability to inhibit the growth of β-lactamase producing bacteria in the presence of a β-lactam antibiotic.

[2] = tested on: E. coli expressing the Class A ESBL SHV-5; assay: In vitro antibacterial assay of β-lactamase inhibition (broth microdilution MIC), E. coli SHV-5; type: cell-based; settings: for MIC of example compound, E. coli SHV-5: in presence of Ceftazidime 8 μg/ml (Examples 1-56)
Description: as §1, §2

[3] = tested on: K. pneumoniae expressing the Class A carbapenemase KPC-2; assay: microbe, parasite or virus in culture; type: cell-based; settings: for MIC of example compound, K. pneumoniae KPC-2: in presence of Ceftazidime 8 μg/ml (Examples 1-56)
Description: as §1, §2

[4] = tested on: E. cloacae expressing the Class C P99+; assay: In vitro antibacterial assay of β-lactamase inhibition (broth microdilution MIC), E. cloacae P99+; type: cell-based; settings: for MIC of example compound, E. cloacae P99+: in presence of Ceftazidime 8 μg/ml (Examples 1-56)
Description: as §1, §2

[5] = tested on: K. pneumoniae expressing the Class A Extended Spectrum Beta-Lactamase (ESBL) CTX-M-15; assay: In vitro antibacterial assay of β-lactamase inhibition (broth microdilution MIC), K. pneumoniae CTX-M-15; type: cell-based; settings: for MIC of example compound, K. pneumoniae CTX-M-15: in presence of Ceftazidime 8 μg/ml (Examples 1-56)
Description: as §1, §2

KPC-2 β-lactamase = target: T1, KPC-2 β-lactamase (Klebsiella pneumoniae, UniProt Q9F663); assay: β-lactamase enzyme inhibition assay (nitrocefin substrate), KPC-2; type: biochemical
T1 construct: expressed as native untagged proteins; made in house; host or cells: E. coli BL21(DE3)
Procedure: (§3) Isolation of β-lactamases. For SHV-5, p99 AmpC, KPC-2 and CTX-M15 β-lactamases, E. coli BL21(DE3) bacterial cells carrying expression plasmids (expressed as native untagged proteins) for the individual β-lactamases were grown in 1 L of Superbroth (Teknova Inc. Hollister, Calif.) supplemented with 100 μg/ml kanamycin and 1×5052 (0.5% glycerol, 0.05% glucose and 0.2% α-lactose) at 35° C. for 18-20 hours. Cells were harvested by centrifugation (4,000×g, 4° C., 20 min), and resuspended in 50 ml of 10 mM HEPES pH 7.5 (1/20 of the initial volume). The cells were lysed by sonication (5 pulses of 45 seconds) at 45 W on ice. The lysates were clarified by centrifugation at 10,000×g for 40 minutes at 4° C. Samples were diluted 5-fold in 50 mM sodium acetate pH 5.0, stored overnight at 4° C., after which they were centrifuged at 10,000×g for 30 minutes to clarify, and filtered through 0.45 μm filters. The samples were loaded onto a 5 ml Capto S sepharose cation exchange column (GE Healthcare) pre-equilibrated with 50 mM sodium acetate pH 5.0. The column was washed with 5 column volumes of 50 mM sodium acetate pH 5.0 to wash out unbound protein and a linear gradient of NaCl (0 to 500 mM) was used to elute the protein (over 16 CV) from the column. Fractions were assayed for β-lactamase activity using Centa (Calbiochem, Gibbstown, N.J.) as a reporter β-lactamase substrate for activity in the isolated fractions. Active fractions were pooled, concentrated and further purified by gel filtration chromatography on a Superdex 75 prep grade gel filtration column (GE Healthcare, Piscataway, N.J.) pre-equilibrated in 50 mM Hepes pH 7.5, 150 mM NaCl. Active fractions were pooled concentrated, quantitated by BCA protein determination (Thermo Scientific, Rockford, Ill.), and frozen at −80° C. in 20% glycerol until use.
(§4) β-lactamase Inhibition. To determine the level of inhibition of β-lactamase enzymes, compounds were diluted in PBS at pH 7.0 to yield concentrations between 100 and 0.005 μM in microtiter plates. An equal volume of diluted enzyme stock was added, and the plates were incubated at 37° C. for 10 min. Nitrocefin solution was then dispensed as substrate into each well at a final concentration of 100 μM, and the plates were immediately read with the kinetic program at 486 nm for 10 min on the SPECTRAMAX® Plus^384 (high-throughput microplate spectrophotometer; Molecular Devices Corp., Sunnyvale, Calif.). Maximum rates of metabolism were then compared to those in control wells (without inhibitors), and percentages of enzyme inhibition were calculated for each concentration of inhibitor. The concentration of inhibitor needed to reduce the initial rate of hydrolysis of substrate by 50% (IC50) was calculated as the residual activity of β-lactamase at 486 nm using the SoftMax Pro 5.0 software (Molecular Devices Corp.).
(§5) Using the methodology described above, examples of the current invention were evaluated for their ability to inhibit β-lactamase enzymes. The results of these assays are summarized in Table 2 for representative enzymes across different subtypes (note SHV-5 and CTXM-15 exemplify different subclasses of Ambler Class A Extended Spectrum Beta Lactamases, KPC-2 exemplifies Class A carbapenemases, P99 represents chromosomal Class C AmpC, VIM-2 exemplifies subclass B1 of metallo-β-lactamases, and OXA-23 represents chromosome-encoded Class D oxacillin-hydrolyzing β-lactamases), NT=not tested.

CTX-M15 β-lactamase = target: T2, CTX-M15 β-lactamase (Escherichia coli, UniProt Q9EXV5); assay: β-lactamase enzyme inhibition assay (nitrocefin substrate), CTXM-15; type: biochemical
T2 construct: expressed as native untagged proteins; made in house; host or cells: E. coli BL21(DE3)
Procedure: as §3, §4, §5

p99 AmpC β-lactamase = target: T3, p99 AmpC β-lactamase (Enterobacter cloacae, UniProt P05364); assay: β-lactamase enzyme inhibition assay (nitrocefin substrate), P99 AmpC; type: biochemical; settings: nitrocefin 100 μM, 37° C., PBS pH 7.0; read-out: P99 AmpC IC50
T3 construct: expressed as native untagged proteins; made in house; host or cells: E. coli BL21(DE3)
Procedure: as §3, §4, §5

SHV-5 β-lactamase = target: T4, SHV-5 β-lactamase (Klebsiella pneumoniae, UniProt P0A3M1); assay: β-lactamase enzyme inhibition assay (nitrocefin substrate), SHV-5; type: biochemical
T4 construct: expressed as native untagged proteins; made in house; host or cells: E. coli BL21(DE3)
Procedure: as §3, §4, §5

T3 sequence (P05364 21-381): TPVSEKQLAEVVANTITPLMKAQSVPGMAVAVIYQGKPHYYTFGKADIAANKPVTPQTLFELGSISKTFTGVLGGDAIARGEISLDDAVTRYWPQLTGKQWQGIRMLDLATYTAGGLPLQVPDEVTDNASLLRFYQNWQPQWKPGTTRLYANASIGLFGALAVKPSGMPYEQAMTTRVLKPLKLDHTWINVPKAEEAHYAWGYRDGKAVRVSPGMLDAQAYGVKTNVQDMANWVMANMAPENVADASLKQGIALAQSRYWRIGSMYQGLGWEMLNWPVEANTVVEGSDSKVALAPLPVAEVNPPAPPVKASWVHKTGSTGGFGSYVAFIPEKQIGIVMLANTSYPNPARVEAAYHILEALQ
T2 sequence (Q9EXV5 entry or part of it): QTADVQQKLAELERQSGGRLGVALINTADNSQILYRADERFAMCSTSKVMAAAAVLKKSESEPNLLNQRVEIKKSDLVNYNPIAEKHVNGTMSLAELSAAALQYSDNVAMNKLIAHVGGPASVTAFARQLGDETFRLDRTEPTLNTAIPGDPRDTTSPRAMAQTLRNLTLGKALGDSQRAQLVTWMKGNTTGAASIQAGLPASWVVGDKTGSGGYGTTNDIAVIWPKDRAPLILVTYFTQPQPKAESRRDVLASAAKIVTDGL
T4 sequence (P0A3M1 22-286): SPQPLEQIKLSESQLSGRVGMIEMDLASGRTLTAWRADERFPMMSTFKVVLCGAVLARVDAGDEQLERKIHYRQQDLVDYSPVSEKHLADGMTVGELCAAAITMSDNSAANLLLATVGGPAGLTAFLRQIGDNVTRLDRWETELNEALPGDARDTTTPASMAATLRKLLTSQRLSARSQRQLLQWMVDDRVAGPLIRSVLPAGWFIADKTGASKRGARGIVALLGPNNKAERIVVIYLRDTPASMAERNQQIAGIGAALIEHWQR
T1 sequence (Q9F663 25-293 limits assumed): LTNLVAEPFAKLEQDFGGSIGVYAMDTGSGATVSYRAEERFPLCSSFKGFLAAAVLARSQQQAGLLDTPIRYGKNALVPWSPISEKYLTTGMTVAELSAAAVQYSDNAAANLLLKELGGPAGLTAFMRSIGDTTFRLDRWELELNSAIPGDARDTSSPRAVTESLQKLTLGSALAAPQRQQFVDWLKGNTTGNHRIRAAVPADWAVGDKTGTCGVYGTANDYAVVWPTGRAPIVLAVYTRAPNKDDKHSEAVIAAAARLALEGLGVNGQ

| Compound | MIC ([1]; Pseudomonas aeruginosa, read-out: MIC alone, P. aeruginosa VIM-2) [µg/mL] | MIC ([2]; Escherichia coli, read-out: MIC alone, E. coli SHV-5) [µg/mL] | MIC ([3]; Klebsiella pneumoniae, read-out: MIC alone, K. pneumoniae KPC-2) [µg/mL] | MIC ([4]; Enterobacter cloacae, read-out: MIC alone, E. cloacae P99+ AmpC) [µg/mL] | MIC ([5]; Klebsiella pneumoniae, read-out: MIC alone, K. pneumoniae CTX-M-15) [µg/mL] | IC50 (KPC-2 β-lactamase) [nM] | IC50 (CTX-M15 β-lactamase) [nM] | MIC of example compound, P. aeruginosa VIM-2 [1] [µg/mL] | MIC of example compound, E. coli SHV-5 [2] [µg/mL] | IC50 (p99 AmpC β-lactamase) [nM] | IC50 (SHV-5 β-lactamase) [nM] | MIC of example compound, K. pneumoniae KPC-2 [3] [µg/mL] | MIC of example compound, E. cloacae P99+ [4] [µg/mL] | MIC of example compound, K. pneumoniae CTX-M-15 [5] [µg/mL] |
| --- | --- | --- | --- | --- | --- | --- | --- | --- | --- | --- | --- | --- | --- | --- |
| CC(C)(O/N=C(\C(=O)N[C@@H]1C(=O)N2C(C(=O)[O-])=C(C[n+]3ccccc3)CS[C@H]12)c1csc(N)n1)C(=O)O [Ceftazidime, reference compound] | 128 | > 1020 | 32 | 128 | 128 | – | – | – | – | – | – | – | – | – |
| Cl.O=C(N[C@@H](Cc1cccc(C(=O)O)c1O)B(O)O)c1ccc(CNCCO)cc1 [Example 16, (1R)-[4-(2-hydroxy-ethylamino)-methyl]-benzoylamino-(3-carboxy-2-hydroxy)benzyl-methyl boronic acid hydrochloride] | – | – | – | – | – | 5 | 5 | 4 | 8 | 6 | > 1000 | 0.03 | 0.25 | 1 |
| Cl.O=C(N[C@@H](Cc1cccc(C(=O)O)c1O)B(O)O)c1ccc(CNCc2cccnc2)cc1 [Example 17, (1R)-[4-(pyridin-3-ylmethylaminomethyl]-benzoylamino-(3-carboxy-2-hydroxy)benzyl-methylboronic acid hydrochloride] | – | – | – | – | – | 15 | 5 | – | – | 8 | > 1000 | – | – | – |
| Cl.O=C(N[C@@H](Cc1cccc(C(=O)O)c1O)B(O)O)c1ccc(CNCc2cccnc2)cc1 [Example 17] | – | – | – | – | – | – | – | >8 | >8 | – | – | 0.12 | 1 | 2 |
| O=C(N[C@@H](Cc1cccc(C(=O)O)c1O)B(O)O)c1cccc(CN(CCO)CCO)c1 [Example 23, (1R)-(3-{[bis-(2-hydroxy-ethyl)-amino]-methyl}-benzoylamino)-(3-carboxy-2-hydroxy)benzyl-methylboronic acid formate] | – | – | – | – | – | 8.1 | 2 | >8 | 8 | 0.9 | 17 | 0.12 | 2 | 1 |
